In one assay the test system is KM12 cells. Briefly: KM12 cell viability assay (CellTiter-Glo). It counts as cell-based. Conditions: for IC50: Homo sapiens, 72 h, KM12 cells, 3 days, CellTiter-Glo. Here is the method: The kinase activity of TRK is known to play important roles in tumors expressing TRK-fusion proteins, as TRK kinase inhibitors compromise cell proliferation, survival, and induce marked clinical responses (Amatu et al., 2016; Drilon et al., 2018; Drilon et al., 2017; Khotskaya et al., 2017). KM12 cells seeded in 96-well plates were treated with heterobifunctional compounds following a 11-point 3-fold serial dilution. Three days after treatment, cell viability was determined using the CellTiter-Glo kit, and normalized to the mean values of 3 replicates of untreated cells. Dose-dependent response was analyzed following the least-squares non-linear regression method using the GraphPad Prism software. Each data point in the figure represents the mean values of three technical replicates ±standard deviation.
KM12 cells seeded in 96-well plates were treated with heterobifunctional compounds following a 11-point 3-fold serial dilution for 3 days.
KM12, TRKA G595R mutated KM12, HEL, and other cells were cultured at 37° C. with 5% CO2 in DMEM or RPMI 1640 Medium supplemented with 10% fetal bovine serum. Cells were authenticated using the short tandem repeat (STR) assays. Mycoplasma test results were negative.
Cells were seeded at a density of 5000 cells per well in 96-well assay plates and treated with test compounds following a 11-point 3-fold serial dilution. Three days later, cell viability was determined using the CellTiter-Glo assay kit (Promega) according to the manufacturer's instructions. The dose-response curves were determined and IC50 values were calculated using the GraphPad Prism software following a nonlinear regression (least squares fit) method.

In a further assay the target is T1, TPM3-TRKA fusion protein (Homo sapiens, UniProt P04629).
T1 construct: TPM3 (N-terminal part of tropomyosin alpha-3, natural fusion partner); endogenous in cells; host or cells: KM12 colon cancer cells; the other entry of the earlier key: TPM3 (P06753, Tropomyosin alpha-3 chain)
T1 sequence (P04629 with tags, fused parts or gaps): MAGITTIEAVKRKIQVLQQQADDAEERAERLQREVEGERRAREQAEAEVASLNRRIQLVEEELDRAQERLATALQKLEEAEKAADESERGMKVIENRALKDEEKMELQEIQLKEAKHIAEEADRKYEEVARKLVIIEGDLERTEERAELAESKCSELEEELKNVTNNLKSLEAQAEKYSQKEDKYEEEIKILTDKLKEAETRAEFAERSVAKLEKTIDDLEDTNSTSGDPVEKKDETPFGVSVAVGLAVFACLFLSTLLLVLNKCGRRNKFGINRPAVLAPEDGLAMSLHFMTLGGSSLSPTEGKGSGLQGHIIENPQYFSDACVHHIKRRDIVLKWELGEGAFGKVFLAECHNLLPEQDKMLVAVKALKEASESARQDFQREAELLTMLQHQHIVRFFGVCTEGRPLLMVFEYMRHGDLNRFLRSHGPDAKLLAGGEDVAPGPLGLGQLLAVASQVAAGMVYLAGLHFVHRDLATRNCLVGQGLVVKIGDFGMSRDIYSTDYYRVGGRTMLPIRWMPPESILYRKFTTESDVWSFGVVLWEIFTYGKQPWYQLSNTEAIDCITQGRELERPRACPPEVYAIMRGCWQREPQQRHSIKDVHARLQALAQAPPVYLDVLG
Description: TPM3-TRKA degradation in KM12 cells (Western blot). It counts as cell-based. Conditions: 16 hours, TRK protein, immunoblot; for inhibition at 0.01 µM: 10 nM; for inhibition at 0.1 µM: 100 nM. Here is the method: Specific exemplary heterobifunctional compounds were characterized in KM12 cells. KM12 cells that express TPM3-TRKA fusion protein were treated with 10 nM or 100 nM heterobifunctional compounds disclosed herein or their corresponding warheads/inhibitors for 16 hours. Cells were collected, lysed and subject to immunoblotting using an antibody specific to TRK proteins.
KM12 cells were treated with heterobifunctional compounds at 10 nM or 100 nM for 16 hours.
Cultured cells were washed with cold PBS once and lysed in cold RIPA buffer supplemented with protease inhibitors and phosphatase inhibitors (Beyotime Biotechnology). The solutions were then incubated at 4° C. for 30 minutes with gentle agitation to fully lyse cells. Cell lysates were centrifuged at 13,000 rpm for 10 minutes at 4° C. and pellets were discarded. Total protein concentrations in the lysates were determined by BCA assays (Beyotime Biotechnology). Cell lysates were mixed with Laemmli loading buffer to 1× and heated at 99° C. for 5 min. Proteins were resolved on SDS-PAGE and visualized by chemiluminescence. Images were taken by a ChemiDoc MP Imaging system (Bio-Rad). Protein bands were quantitated using the software provided by Bio-Rad.
The percentage of TRK protein degradation of each compound at 10 nM and 100 nM was determined in KM12 cells as described in Methods. The percentage of degradation of each compound was indicated in the following categories: N/A: data not available; −: no degradation; +: degradation less than 50%; ++: degradation equal or greater than 50% but less than […]; +++: degradation equal or greater than 80%.

In the case of `COCCN1C[C@@H](NC(=O)Nc2c(C)c(-c3cnc(N4CCN(C(=O)CCCCCNc5cccc6c5C(=O)N(C5CCC(=O)NC5=O)C6=O)CC4)nc3)nn2-c2ccccc2)[C@H](c2cccc(F)c2)C1` (stereo partly drawn) [CPD-007, 1-(3-(2-(4-(6-((2-(2,6-dioxopiperidin-3-yl)-1,3-dioxoisoindolin-4-yl)amino)hexanoyl)piperazin-1-yl)pyrimidin-5-yl)-4-methyl-1-phenyl-1H-pyrazol-5-yl)-3-((3S,4R)-4-(3-fluorophenyl)-1-(2-methoxyethyl)pyrrolidin-3-yl)urea], it took 10.6 nM to reach half-maximal inhibition in the assay on KM12 cells (IC50). At TPM3-TRKA fusion protein, the inhibition at 0.01 µM was over 80% and the inhibition at 0.1 µM was over 80%.

As to `COCCN1C[C@@H](NC(=O)Nc2c(C)c(-c3cnc(N4CCN(C(=O)CCOCCOCCOCCNC(=O)C[C@H](NC(=O)[C@@H]5C[C@@H](O)CN5C(=O)[C@@H](NC(=O)C5(F)CC5)C(C)(C)C)c5ccc(-c6scnc6C)cc5)CC4)nc3)nn2-c2ccccc2)[C@H](c2cccc(F)c2)C1` [CPD-017, (2S,4R)-1-((S)-2-(1-fluorocyclopropane-1-carboxamido)-3,3-dimethylbutanoyl)-N-((S)-16-(4-(5-(5-(3-((3S,4R)-4-(3-fluorophenyl)-1-(2-methoxyethyl)pyrrolidin-3-yl)ureido)-4-methyl-1-phenyl-1H-pyrazol-3-yl)pyrimidin-2-yl)piperazin-1-yl)-1-(4-(4-methylthiazol-5-yl)phenyl)-3,16-dioxo-7,10,13-trioxa-4-azahexadecyl)-4-hydroxypyrrolidine-2-carboxamide], 445 nM corresponded to half-maximal inhibition in the assay on KM12 cells (IC50). Also, the inhibition at 0.1 µM against TPM3-TRKA fusion protein was in the range of 50 to 800%.

On to `COCCN1C[C@@H](NC(=O)Nc2c(C)c(-c3cnc(N4CCN(C(=O)CCOCCOCCOCCOCCOCCNC(=O)C[C@H](NC(=O)[C@@H]5C[C@@H](O)CN5C(=O)[C@@H](NC(=O)C5(F)CC5)C(C)(C)C)c5ccc(-c6scnc6C)cc5)CC4)nc3)nn2-c2ccccc2)[C@H](c2cccc(F)c2)C1` [CPD-001, (2S,4R)-1-((S)-2-(1-fluorocyclopropane-1-carboxamido)-3,3-dimethylbutanoyl)-N-((S)-22-(4-(5-(5-(3-((3S,4R)-4-(3-fluorophenyl)-1-(2-methoxyethyl)pyrrolidin-3-yl)ureido)-4-methyl-1-phenyl-1H-pyrazol-3-yl)pyrimidin-2-yl)piperazin-1-yl)-1-(4-(4-methylthiazol-5-yl)phenyl)-3,22-dioxo-7,10,13,16,19-pentaoxa-4-azadocosyl)-4-hydroxypyrrolidine-2-carboxamide], for which, in the assay with KM12 cells, half-maximal inhibition (IC50) was put at 518 nM.

`COCCN1C[C@@H](NC(=O)Nc2c(C)c(-c3cnc(N4CCN(C(=O)CCCCCNc5ccc6c(c5)C(=O)N(C5CCC(=O)NC5=O)C6=O)CC4)nc3)nn2-c2ccccc2)[C@H](c2cccc(F)c2)C1` (stereo partly drawn) [CPD-008, 1-(3-(2-(4-(6-((2-(2,6-dioxopiperidin-3-yl)-1,3-dioxoisoindolin-5-yl)amino)hexanoyl)piperazin-1-yl)pyrimidin-5-yl)-4-methyl-1-phenyl-1H-pyrazol-5-yl)-3-((3S,4R)-4-(3-fluorophenyl)-1-(2-methoxyethyl)pyrrolidin-3-yl)urea] yielded an IC50 in the assay with KM12 cells of 10.6 nM. For the same molecule, on TPM3-TRKA fusion protein, the inhibition at 0.01 µM is over 80% and the inhibition at 0.1 µM is over 80%.

In the assay on KM12 cells, `COCCN1C[C@@H](NC(=O)Nc2c(C)c(-c3cnc(N4CCN(C(=O)CCOCCOCCOCCOCCNc5cccc6c5C(=O)N(C5CCC(=O)NC5=O)C6=O)CC4)nc3)nn2-c2ccccc2)[C@H](c2cccc(F)c2)C1` (stereo partly drawn) [CPD-010, 1-(3-(2-(4-(1-((2-(2,6-dioxopiperidin-3-yl)-1,3-dioxoisoindolin-4-yl)amino)-3,6,9,12-tetraoxapentadecan-15-oyl)piperazin-1-yl)pyrimidin-5-yl)-4-methyl-1-phenyl-1H-pyrazol-5-yl)-3-((3S,4R)-4-(3-fluorophenyl)-1-(2-methoxyethyl)pyrrolidin-3-yl)urea] returned a concentration for half-maximal inhibition (IC50) of 86.1 nM. On TPM3-TRKA fusion protein, the inhibition at 0.01 µM lay within 50 to 800% and the inhibition at 0.1 µM is over 80%.

With `COCCN1C[C@@H](NC(=O)Nc2c(C)c(-c3cnc(N4CCN(C(=O)CCOCCOCCNC(=O)C[C@H](NC(=O)[C@@H]5C[C@@H](O)CN5C(=O)[C@@H](NC(=O)C5(F)CC5)C(C)(C)C)c5ccc(-c6scnc6C)cc5)CC4)nc3)nn2-c2ccccc2)[C@H](c2cccc(F)c2)C1` [CPD-016, (2S,4R)-1-((S)-2-(1-fluorocyclopropane-1-carboxamido)-3,3-dimethylbutanoyl)-N-((S)-3-((2-(2-(3-(4-(5-(5-(3-((3S,4R)-4-(3-fluorophenyl)-1-(2-methoxyethyl)pyrrolidin-3-yl)ureido)-4-methyl-1-phenyl-1H-pyrazol-3-yl)pyrimidin-2-yl)piperazin-1-yl)-3-oxopropoxy)ethoxy)ethyl)amino)-1-(4-(4-methylthiazol-5-yl)phenyl)-3-oxopropyl)-4-hydroxypyrrolidine-2-carboxamide], the half-maximal inhibitory concentration (IC50) in the assay on KM12 cells stood at 190 nM. Moreover, at TPM3-TRKA fusion protein, the inhibition at 0.01 µM is under 50% and the inhibition at 0.1 µM lay within 50 to 800%.

As for `COCCN1C[C@@H](NC(=O)Nc2c(C)c(-c3cnc(N4CCN(C(=O)CCCNc5cccc6c5C(=O)N(C5CCC(=O)NC5=O)C6=O)CC4)nc3)nn2-c2ccccc2)[C@H](c2cccc(F)c2)C1` (stereo partly drawn) [CPD-004, 1-(3-(2-(4-(4-((2-(2,6-dioxopiperidin-3-yl)-1,3-dioxoisoindolin-4-yl)amino)butanoyl)piperazin-1-yl)pyrimidin-5-yl)-4-methyl-1-phenyl-1H-pyrazol-5-yl)-3-((3S,4R)-4-(3-fluorophenyl)-1-(2-methoxyethyl)pyrrolidin-3-yl)urea], the IC50 in the assay with KM12 cells worked out at 25.8 nM. In addition, on TPM3-TRKA fusion protein, the inhibition at 0.01 µM was 50 to 800% and the inhibition at 0.1 µM lay in the range of 50 to 800%.

`COCCN1C[C@@H](NC(=O)Nc2c(C)c(-c3cnc(N4CCN(C(=O)CCCCCCCNc5cccc6c5C(=O)N(C5CCC(=O)NC5=O)C6=O)CC4)nc3)nn2-c2ccccc2)[C@H](c2cccc(F)c2)C1` (stereo partly drawn) [CPD-009, 1-(3-(2-(4-(8-((2-(2,6-dioxopiperidin-3-yl)-1,3-dioxoisoindolin-4-yl)amino)octanoyl)piperazin-1-yl)pyrimidin-5-yl)-4-methyl-1-phenyl-1H-pyrazol-5-yl)-3-((3S,4R)-4-(3-fluorophenyl)-1-(2-methoxyethyl)pyrrolidin-3-yl)urea]: the IC50 with KM12 cells came to 13.6 nM. Moreover, on TPM3-TRKA fusion protein, the inhibition at 0.01 µM is over 80% and the inhibition at 0.1 µM is over 80%.

As to `COCCN1C[C@@H](NC(=O)Nc2c(C)c(-c3cnc(N4CCN(C(=O)CCCCCCCNC(=O)C[C@H](NC(=O)[C@@H]5C[C@@H](O)CN5C(=O)[C@@H](NC(=O)C5(F)CC5)C(C)(C)C)c5ccc(-c6scnc6C)cc5)CC4)nc3)nn2-c2ccccc2)[C@H](c2cccc(F)c2)C1` [CPD-014, (2S,4R)-1-((S)-2-(1-fluorocyclopropane-1-carboxamido)-3,3-dimethylbutanoyl)-N-((S)-3-((8-(4-(5-(5-(3-((3S,4R)-4-(3-fluorophenyl)-1-(2-methoxyethyl)pyrrolidin-3-yl)ureido)-4-methyl-1-phenyl-1H-pyrazol-3-yl)pyrimidin-2-yl)piperazin-1-yl)-8-oxooctyl)amino)-1-(4-(4-methylthiazol-5-yl)phenyl)-3-oxopropyl)-4-hydroxypyrrolidine-2-carboxamide], the IC50 in the assay with KM12 cells was 17.8 nM. Moreover, at TPM3-TRKA fusion protein, the inhibition at 0.01 µM fell in the range of 50 to 800% and the inhibition at 0.1 µM was over 80%.

In the case of `COCCN1C[C@@H](NC(=O)Nc2c(C)c(-c3cnc(N4CCN(C(=O)CNc5cccc6c5C(=O)N(C5CCC(=O)NC5=O)C6=O)CC4)nc3)nn2-c2ccccc2)[C@H](c2cccc(F)c2)C1` (stereo partly drawn) [CPD-003, 1-(3-(2-(4-((2-(2,6-dioxopiperidin-3-yl)-1,3-dioxoisoindolin-4-yl)glycyl)piperazin-1-yl)pyrimidin-5-yl)-4-methyl-1-phenyl-1H-pyrazol-5-yl)-3-((3S,4R)-4-(3-fluorophenyl)-1-(2-methoxyethyl)pyrrolidin-3-yl)urea], in the assay with KM12 cells (11-point 3-fold serial dilution, 3 days (FIG. 3)), the “viability of KM12 cells” value is “inhibited the viability”. This molecule came in with an IC50 in the assay with KM12 cells of 5.1 nM. For the same molecule, on TPM3-TRKA fusion protein, the inhibition at 0.01 µM is over 80% and the inhibition at 0.1 µM was over 80%.

The record behind these values is patent US20240246955A1, “TROPOMYOSIN RECEPTOR KINASE (TRK) DEGRADATION COMPOUNDS AND METHODS OF USE” (CULLGEN (SHANGHAI), INC., priority 2021, published 2024).
